The values below come from patent US7666873B2, “N-phenyl-(2R,5S)dimethylpiperazine derivative” (Astellas Pharma Inc., priority 2002, dated 2010).

Counter-ions that a name gives are not always drawn. Like-named read-outs stand apart in the source and are kept apart here.

Series [1] addresses T1, human androgen receptor (Homo sapiens, UniProt P10275).
T1 construct: expressed in transfected cells
T1 sequence (P10275 1-920): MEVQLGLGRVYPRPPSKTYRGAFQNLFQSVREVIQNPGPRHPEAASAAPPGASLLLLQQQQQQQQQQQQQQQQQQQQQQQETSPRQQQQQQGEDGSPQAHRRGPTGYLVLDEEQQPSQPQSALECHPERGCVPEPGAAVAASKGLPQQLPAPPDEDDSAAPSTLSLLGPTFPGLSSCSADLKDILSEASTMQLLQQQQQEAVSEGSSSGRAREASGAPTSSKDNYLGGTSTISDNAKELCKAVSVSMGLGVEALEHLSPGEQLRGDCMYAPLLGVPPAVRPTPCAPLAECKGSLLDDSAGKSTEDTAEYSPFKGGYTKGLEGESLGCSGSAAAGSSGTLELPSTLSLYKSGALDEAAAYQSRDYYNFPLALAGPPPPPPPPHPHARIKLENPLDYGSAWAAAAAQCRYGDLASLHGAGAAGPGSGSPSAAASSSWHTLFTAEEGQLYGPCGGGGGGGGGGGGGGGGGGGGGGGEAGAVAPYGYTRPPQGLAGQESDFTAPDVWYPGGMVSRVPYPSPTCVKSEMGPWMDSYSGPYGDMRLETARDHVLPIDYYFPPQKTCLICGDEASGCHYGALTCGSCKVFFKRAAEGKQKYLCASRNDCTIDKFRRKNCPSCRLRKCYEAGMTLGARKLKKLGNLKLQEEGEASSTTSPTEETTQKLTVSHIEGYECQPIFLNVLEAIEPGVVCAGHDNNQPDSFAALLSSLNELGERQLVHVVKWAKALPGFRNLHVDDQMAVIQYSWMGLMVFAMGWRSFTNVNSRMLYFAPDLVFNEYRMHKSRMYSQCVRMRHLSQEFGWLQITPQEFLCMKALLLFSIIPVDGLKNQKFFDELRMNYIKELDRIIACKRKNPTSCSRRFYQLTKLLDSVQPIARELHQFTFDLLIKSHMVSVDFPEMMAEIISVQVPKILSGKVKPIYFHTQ
Briefly: Transcription activation inhibitory action toward human androgen receptor (antagonistic action), MMTV luciferase reporter in CHO cells. It counts as cell-based.
Procedure: b) Evaluation of Transcription Activation Inhibitory Action Toward Human Androgen Receptor (Antagonistic Action)
CHO/MMTV stable transformant cells and CHO/SV40 stable transformant cells were each inoculated to a 96-well luminoplate for cell culture in an amount of 2×10^4 cells. After 6 to 8 hours, each of the compounds of the present invention was added together with DHT (final concentration of 0.3 nM). After about 18 hours from the addition of the compound, 20 μl of a solution containing 1% triton-X and 10% glycerin was added thereto to dissolve the cells and 100 μl of a luciferase substrate solution containing 0.47 mM luciferin was further added thereto. Then, emitted light intensity was measured using a luminometer, the intensity being regarded as luciferase activity obtained by MMTV-LTR transcription activation due to androgen receptor and nonspecific activation of SV40 promoter transcription.
The transcription activation inhibitory action of the compound of the present invention was calculated according to the following equation as an inhibitory ratio to the transcription activity induced by 0.3 nM DHT. Inhibitory ratio (%)=100(I′−X′)/(I′−B)
I′: (MMTV luciferase activity)/(SV40 luciferase activity) in the case that 0.3 nM DHT is only added
B: (MMTV luciferase activity)/(SV40 luciferase activity) without treatment
X′: (MMTV luciferase activity)/(SV40 luciferase activity) in the case that the compound of the present invention is added together with 0.3 nM DHT
IC50 was determined from the concentration of the compound of the present invention at which the inhibitory ratio calculated by the above method reached 50%.

For series [2], the system named is ventral prostate of mature male rat. Briefly: Prostate gland reducing action toward mature male rat. It counts as in vivo. Conditions: 360 h; oral, once a day for 15 days, male Wistar rat, ventral prostate wet weight, linear regression. The protocol: 3. Prostate Gland Reducing Action Toward Mature Male Rat
To a male 9-10 weeks old Wistar rat, the compound of the present invention suspended in a 0.5% methylcellulose solution was orally administered once a day continuously for 15 days. After 6 hours from the final administration, the wet weight of its ventral prostate was measured and a prostate gland reducing of the compound of the present invention was investigated.
The prostate gland reducing of the compound of the present invention was calculated according to the following formula using a group to which the compound of the present invention was administered as a test group and a group to which only methylcellulose was administered as a control group. Lessening ratio (%)=100(B−A)/B
A: Wet weight of ventral prostate in test group
B: Wet weight of ventral prostate in control group
From the lessening ratio determined in the above, an ED50 value was calculated by the linear regression method.

Series [3] deals with T1, human androgen receptor. Description: Transcription activating action toward human androgen receptor (agonistic action), MMTV luciferase reporter in CHO cells. The following applies: ratio to transcription activity induced by 1 nM DHT; CHO/MMTV and CHO/SV40 stable transformants. It counts as cell-based. As for the experimental part: 1. Transcription Activation Regulatory Action Toward Human Androgen Receptor
Acquisition of Human Androgen Receptor-Expressing, Stable Transformant of MMTV Reporter Gene, and Stable Transformant of SV40 Reporter Gene
CHO cells were seeded on a dish for cell culture having a diameter of 100 mm in an amount of 1×10^6 cells. After 12 to 18 hours, a human androgen receptor-expressing plasmid, MMTV-LTR luciferase reporter plasmid (also inclusive of neomycin resistant gene) co-precipitated with calcium phosphate was added thereto to effect transfection. […]
CHO/MMTV stable transformant cells and CHO/SV40 stable transformant cells were each seeded to a 96-well luminoplate for cell culture in an amount of 2×10^4 cells/well. […] Then, emitted light intensity was measured by means of a luminometer, the intensity being regarded as luciferase activity obtained by MMTV-LTR transcription activation due to human androgen receptor and nonspecific activation of SV40 promoter transcription.
The transcription activating action of the compound of the present invention was calculated according to the following equation as a ratio to the transcription activity induced by 1 nM DHT. […]

By melting point is commonly meant the temperature of the solid-liquid transition. `COc1cc(N2C[C@@H](C)N(C(=O)Nc3ccc(C(F)(F)F)nc3)C[C@@H]2C)ccc1C#N` (as salt: salt) [Example 3-15, (2R,5S)-4-(4-cyano-3-methoxyphenyl)-2,5-dimethyl-N-(6-trifluoromethyl-3-pyridyl)piperazine-1-carboxamide] came in with a melting point of 211 to 212 °C.

The IC50 is the concentration that inhibits the measured activity by half. Usually ED50 stands for the dose that gives a 50% effect, or the effect in half of the subjects. A lower ED50 goes with greater potency. On human androgen receptor [1], `C[C@@H]1CN(c2ccc(C#N)c(Br)c2)[C@@H](C)CN1C(=O)Nc1ccc(C(F)(F)F)nc1` [Example 3-23, (2R,5S)-4-(3-bromo-4-cyanophenyl)-2,5-dimethyl-N-(6-trifluoromethyl-3-pyridyl)piperazine-1-carboxamide] gave an IC50 of 53 nM. Moreover, the ED50 in series [2] turned out to be 1.1 mg/kg.

Consider `C[C@@H]1CN(c2ccc(C#N)c(Cl)c2)[C@@H](C)CN1C(=O)Nc1cnc(C2CC2)nc1` [Example 3-9, (2R,5S)-4-(3-chloro-4-cyanophenyl)-N-(2-cyclopropylpyrimidin-5-yl)-2,5-dimethylpiperazine-1-carboxamide], for which the ED50 in series [2] stood at 4.5 mg/kg.

Regarding `COc1cc(N2C[C@@H](C)N(C(=O)Nc3ccc(C(F)(F)F)nc3)C[C@@H]2C)ccc1C#N` [Example 3-15, (2R,5S)-4-(4-cyano-3-methoxyphenyl)-2,5-dimethyl-N-(6-trifluoromethyl-3-pyridyl)piperazine-1-carboxamide], the concentration for half-maximal inhibition (IC50) at human androgen receptor [1] (against 0.3 nM DHT, CHO/MMTV and CHO/SV40 stable transformants, read-out: Transcription activation inhibitory action (IC50 nM)) was 130 nM. Also, it took a dose of 4.1 mg/kg to reach the 50% effect level in series [2] (ED50).

In turn, `C[C@@H]1CN(c2ccc(C#N)c(Br)c2)[C@@H](C)CN1C(=O)Nc1ccc(C(F)(F)F)nc1` (as salt: salt) [Example 3-23, (2R,5S)-4-(3-bromo-4-cyanophenyl)-2,5-dimethyl-N-(6-trifluoromethyl-3-pyridyl)piperazine-1-carboxamide] registered a melting point of 216 to 218 °C.

On to `C[C@@H]1CN(c2ccc(C#N)c(C(F)(F)F)c2)[C@@H](C)CN1C(=O)Nc1cnc(C2CC2)nc1` [Example 3-30, (2R,5S)-4-(4-cyano-3-trifluoromethylphenyl)-N-(2-cyclopropylpyrimidin-5-yl)-2,5-dimethylpiperazine-1-carboxamide], for which the IC50 against human androgen receptor [1] was determined as 68 nM. Also, the 50% effect level in series [2] (ED50) was put at a dose of 3.9 mg/kg.

Turning to `C[C@@H]1CN(c2ccc(C#N)c(Cl)c2)[C@@H](C)CN1C(=O)Nc1ccc(C#N)nc1` [Example 3-12, (2R,5S)-4-(3-chloro-4-cyanophenyl)-N-(6-cyano-3-pyridyl)-2,5-dimethylpiperazine-1-carboxamide], the agonistic induction ratio at human androgen receptor [3] was at most 1%. Besides, the half-maximal inhibitory concentration (IC50) against human androgen receptor [1] amounted to 40 nM. In series [2], this molecule had a median effective dose (ED50) of 1.7 mg/kg.
